Assay results from US7199113B2, “Pharmaceutically active compounds and methods of use thereof” (priority 1998, dated 2007).

Assays:
Type in all cases: biochemical
FVIIa = target: T1, FVIIa (Homo sapiens, UniProt P08709); test: FVIIa-dependent FX activation (TF omitted); details: statement on Table 2 (FIG. 2(b))
T1 construct: proteolytic cleavage of the zymogen FVII to the active serine protease FVIIa; purchased Enzyme Research Laboratories Inc
T1 sequence (P08709 213-466 limits assumed): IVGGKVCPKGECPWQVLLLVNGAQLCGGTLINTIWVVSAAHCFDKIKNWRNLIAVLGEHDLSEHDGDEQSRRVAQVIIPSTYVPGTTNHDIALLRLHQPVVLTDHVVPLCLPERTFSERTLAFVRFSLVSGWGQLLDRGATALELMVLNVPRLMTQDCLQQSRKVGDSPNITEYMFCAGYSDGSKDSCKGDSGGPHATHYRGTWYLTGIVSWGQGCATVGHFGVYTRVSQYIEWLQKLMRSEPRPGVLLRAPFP
T1 sequence (P08709 61-212 limits assumed): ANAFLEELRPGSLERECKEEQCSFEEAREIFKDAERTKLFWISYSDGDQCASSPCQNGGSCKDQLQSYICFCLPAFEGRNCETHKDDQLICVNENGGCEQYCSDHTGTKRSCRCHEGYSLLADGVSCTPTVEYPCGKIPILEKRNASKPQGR
Procedure: FVIIa alone in the presence of phospholipids and calcium is also able to activate FX, although at a very low rate. This experiment was designed to examine whether compounds 1 and 2 inhibit FVIIa-dependent FX activation if TF is omitted. […] This assay was done at relatively high FVIIa concentrations. Six microliters of compound 1(1 mM in 10% DMSO) or 10% DMSO was mixed with 40 μl of 25 mM HEPES-NaOH, 5 mM CaCl2, 150 mM NaCl, 0.1% BSA, pH 7.5 containing phosphatidylcholine (0.07 mg/ml) and phosphatidylserine (0.03 mg/ml). Then 4 μl of FVIIa (1.5 μM) and 10 μl of FX (180 nM) were added and mixed. The mixture was incubated for 1 hour at 37° C. Then 10 μl of EDTA (400 mM) was added to stop FVII activity by removing the calcium required for factor VII activity. Then 10 μl of FXa substrate S-2765 (3.2 mM) was added to measure the FXa activity generated by FVIIa. After 16 minutes incubation at 37° C., 20 μl of 50% acetic acid was added to quench the reaction. Absorbance at 405 nm was read and the percent inhibition of FVIIa-dependent FX activation was calculated from OD405 nm values in the absence and presence of compound 1.

FIXa = target: T2, FIXa (Homo sapiens, UniProt P00740); test: FIXa-dependent FX activation assay; details: statement on Table 2 (FIG. 2(b))
T2 construct: FIX was first converted to FIXa by TF/VIIa in the absence of compound; purchased Enzyme Research Laboratories Inc
T2 sequence (P00740 227-461 limits assumed): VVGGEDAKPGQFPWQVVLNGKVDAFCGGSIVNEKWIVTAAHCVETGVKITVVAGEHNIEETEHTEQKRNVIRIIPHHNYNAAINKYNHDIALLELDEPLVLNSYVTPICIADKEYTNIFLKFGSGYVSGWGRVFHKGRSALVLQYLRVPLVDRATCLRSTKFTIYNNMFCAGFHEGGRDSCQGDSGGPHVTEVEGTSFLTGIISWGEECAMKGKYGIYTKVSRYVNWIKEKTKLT
T2 sequence (P00740 47-191 limits assumed): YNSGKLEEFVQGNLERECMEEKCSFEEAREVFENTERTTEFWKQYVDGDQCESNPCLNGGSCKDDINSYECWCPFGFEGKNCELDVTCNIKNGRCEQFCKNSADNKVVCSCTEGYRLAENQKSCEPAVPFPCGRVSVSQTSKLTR
Procedure: FIX was first converted to FIXa by TF/VIIa in the absence of compound. This was done in a 50-ml tube. After incubating TF/VIIa (0.67 nM, 10 ml) at 37° C. for 15 minutes, FIX (300 nM, 0.123 ml) was added and incubated at 37° C. for 30 minutes. Then 1.54 ml of EDTA (400 mM) was added to stop the FIX activation. Then 65 μl of the above FIXa sample was transferred into wells of a 96-well plate that contain 5 μl of diluted DMSO (or buffer) or compound (in diluted DMSO or buffer). Ten μl of FX (1000 nM), 10 μl of polylysine (300 nM), and 10 μl of Spectrozyme FXa (5 mM) were added to each well and incubate at 37° C. until an OD405 nm value of ˜0.8 was reached. Absorbance at 405 nm was then measured following addition of 20 μl of 50% acetic acid. The percent inhibition of FIXa activity was calculated from OD405 nm values in the absence and presence of a compound.

[1] = target: T3, human recombinant TF/VIIa complex (lipidated) (Homo sapiens, UniProt P13726); test: TF/VIIa-dependent FX activation assay
T3 construct: Truncated recombinant human tissue factor (e.g. composed of 243 amino acids) is expressed in E. coli; host or cells: E. coli (TF)
T3 sequence (P13726 33-275 limits assumed, one chain of several): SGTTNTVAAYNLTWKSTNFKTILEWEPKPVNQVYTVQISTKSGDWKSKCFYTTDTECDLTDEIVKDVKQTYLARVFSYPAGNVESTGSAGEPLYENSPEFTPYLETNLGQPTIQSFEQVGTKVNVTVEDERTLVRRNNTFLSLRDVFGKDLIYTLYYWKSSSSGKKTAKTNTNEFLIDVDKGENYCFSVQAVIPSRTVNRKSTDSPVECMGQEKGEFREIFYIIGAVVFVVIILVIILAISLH

## O=P(O)(O)C(CNc1cccc(O)c1)P(=O)(O)O [Compound 1, 1-(bisphosponate)-2-amino(3-hydroxyphenyl)ethyl]
FVIIa
  inhibition of FVIIa-dependent FX activation: does not inhibit FVIIa-dependent FX activation
FIXa
  inhibition of FIXa activity (FIXa-dependent FX activation): do not inhibit FIXa activity
[1]; TF/VIIa, FX and compound added simultaneously, FX 5 nM
  IC50: 18.1 µM
[1]; TF/VIIa, FX and compound added simultaneously, FX 30 nM
  IC50: 33.2 µM
[1]; compound preincubated with TF/VIIa 15 minutes at 37° C. prior to FX, FX 5 nM
  IC50: 8.3 µM

## O=P(O)(O)C(CNc1ccc(O)cc1)P(=O)(O)O [Compound 2]
FIXa
  inhibition of FIXa activity (FIXa-dependent FX activation): do not inhibit FIXa activity
